# Reference: patent US10131881B2, “Method for preparing induced pluripotency stem cells from mesenchymal stem cells by using phlorotannin fraction” (BBHC, priority 2014, dated 2018)
# Several values for one entry are separate records, joined by “and”; a condition that tells them apart may be missing. Equal entries are not always repeated.
# Assays:
# [1] = system: OCT4, SOX2, SSEA-4, and AP; assay: Immunochemical / AP staining of induced colonies for pluripotency stem cell-specific markers; format: cell-based, human; details: confocal microscopy; antibodies for OCT4, SOX2, SSEA-4; AP fluorogenic dye
# Description: With respect to the pluripotency stem cells induced by the method of the present invention, whether to express stage-specific embryonic antigen4 (SSEA-4), alkaline phosphatase (AP), OCT4, and SOX2 as specific proteins to embryonic stem cells was analyzed by using antibodies thereof and an immunochemical staining method. During the staining process, cells were first fixed by using 4% paraformaldehyde and washed with PBS, and blocked with a 1% BSA solution. The cells were treated with primary antibodies for OCT4, SOX2, and SSEA-4 and reacted at 4° C. for 18 hours, and then washed with PBS, treated with secondary antibodies with fluorescence (FITC) to the primary antibodies, and reacted at room temperature for 1 hour. The cells were washed with PBS and then the expression was analyzed by using a confocal microscope. […] AP staining was performed with an alkaline phosphatase cell-permeable fluorogenic substrate dye, the AP fluorogenic dye was diluted in a DMEM F-12 culture solution to be treated in colonies, and then reacted for 20 to 30 min, washed with the DMEM F-12 culture solution two times, and the expression was analyzed by using a confocal microscope, and the result was illustrated in FIG. 17. […]
# [2] = system: mesenchymal stem cells derived from human umbilical cord; assay: Induction of pluripotency stem cells from mesenchymal stem cells (colony formation); format: cell-based; details: DMEM F-12 basic medium plus 0.1 v/v % energy water
# Description: An experiment for measuring induction ability of pluripotency stem cells from mesenchymal stem cells derived from human umbilical cord according to a concentration of the phlorotannin fraction prepared in Example 1-1 was performed. In a control group, DMEM F-12 (Gibco) as a dedicated medium of MSC, 10% FBS, 100 unit/ml penicillin, and 50 μg/ml streptomycin were used as a basic medium (Normal), and in an experimental group, mesenchymal stem cells derived from human which was subjected to three sub-cultures were used and phlorotannin fractions having concentrations of 1 μg/ml, 20 μg/ml, 50 μg/ml, 100 μg/ml, 400 μg/ml, 800 μg/ml, and 1000 μg/ml and 0.1 v/v % energy water (purified deionized water containing SiO2, Al2O3, TiO3, Fe2O3, CaO, Na2O, K2O, and LiO, STC) were added in the medium. The mesenchymal stem cells derived from human umbilical cord were isolated and washed and mononuclear cells were inoculated in a 6-well plate (dish) with 1×10^4 cells and maintained and incubated at 37° C. and 5% CO2.
# An experiment for measuring induction ability of pluripotency stem cells from mesenchymal stem cells derived from human according to a concentration of compound 1 among the compounds isolated in Example 1-2 was performed. […]
compound,measurement,setting,value
"Oc1cc(O)cc(Oc2c(O)cc(O)c3c2Oc2c(O)cc(O)c(-c4c(O)cc(O)c5c4Oc4c(O)cc(Oc6c(O)cc(O)cc6O)c(Oc6cc(O)cc(O)c6)c4O5)c2O3)c1 [compound 1, 2-O-(2,4,6-trihydroxyphenyl)-6,6′-bieckol]",staining of colonies by pluripotency stem cell-specific markers,[1],"stained by OCT4, SOX2, SSEA-4, and AP"
same,time after which colony formation was observed,[2]; at the colony-forming concentrations,14 days
same,concentration at which colonies were formed,"[2]; tested 1, 20, 50, 100, 400, 800, 1000 μg/ml, colonies only at stated concentrations",50 µg/mL and 100 µg/mL
